This note sets out measurements from PMC7617978, “Anti-trypanosomal quinazolines targeting lysyl-tRNA synthetases show partial efficacy in a mouse model of acute Chagas disease” (Science translational medicine, 2025).

Values joined by “and” are separate entries in the source; they are usually repeats but may differ in a detail not shown here. Equal values may be shown once. Read-outs that look alike come from different tables or passages of the source.

A word on the EC50: it is the concentration at which the effect is half-maximal. As usually defined, the stoichiometry N is a count of units in the complex or per binding partner.

Assay [1] deals with T. cruzi CL Brener strain. Briefly: Bioluminescent mouse model of acute T. cruzi infection. To be noted: 100 mg/kg QD oral, 5 days, in words. It counts as in vivo, BALB/c mice. Here is the method: Female BALB/c mice (aged 6-7 weeks), purchased from Charles River (UK), were maintained under specific pathogen-free conditions in individually ventilated cages, with a 12 h light/dark cycle. They had access to food and water ad libitum. Mice were infected by intraperitoneal injection (i.p) of 1x10^3 bloodstream trypomastigotes derived from CB17 SCID mouse blood.
Compounds were prepared in 5% (v/v) dimethyl sulfoxide /95% HPMC suspension vehicle (0.5% (w/v) hydroxypropyl methylcellulose, 0.5% (v/v) benzyl alcohol, 0.4% (v/v) Tween 80 in Milli-Q water). Mice were treated as outlined in Fig. 5, with compounds administered by oral gavage. At different days after infection, mice were injected with d-luciferin (150 mg/kg) i.p., anaesthetized using 2.5% (v/v) gaseous isoflurane and imaged using an IVIS Spectrum (Revvity, Hopkinton, MA, USA) 5-10 min later. To estimate parasite burden, mice ventral and dorsal regions of interest were drawn using Living Image 4.7.3 to quantify bioluminescence expressed as total flux (photons/second; p/s). Regions of interest data from infected and not-infected mice were used as controls. Exposure times varied between 30 sec and 5 min, depending on the signal intensity.

In assay [2] the test system is T. cruzi (Sylvio X10/7A1 strain) epimastigote. Briefly: microbe, parasite or virus in culture. To be noted: epimastigote; for EC50: read-out: EC50. It counts as cell-based.
The subject of the next assay is T. b. brucei BSF. Description: Drug sensitivity assay, T. b. brucei bloodstream forms. The settings on record: BSF; for EC50: read-out: EC50. It counts as cell-based.
Assay [3] concerns L. donovani (LdBOB) promastigote. Description: Drug sensitivity assay, L. donovani promastigotes. It counts as cell-based. To be noted: promastigote; for EC50: read-out: EC50.
The target in assay [4] is Trypanosoma cruzi lysyl-tRNA synthetase 1 (TcKRS1), recombinant, residues 54-580 (Trypanosoma cruzi). Briefly: SEC; size exclusion chromatography as the last step of purification of recombinant TcKRS1 (tag cleaved); running buffer not stated. A general note: In gel filtration, larger molecules generally elute earlier.

In the case of `O=C(Cn1ccnc1[N+](=O)[O-])NCc1ccccc1` [benznidazole, reference compound], the “parasite burden after treatment” value in assay [1] was “reduced close to the limit of detection”.

`O=C(NCC1(O)CCC(F)(F)CC1)c1cc(=O)c2cc(F)ccc2o1` [DDD01510706, reference compound]: the “Fold-shift (relative to WT)” value in assay [2] (KRS1 OE) was 9 fold; in assay [2] (KRS1 S319L), 25 fold; with T. b. brucei BSF (KRS1 OE), 5 fold and ~ 5 fold; in the assay on T. b. brucei BSF (KRS1 serine-to-leucine mutant (S323L; printed S319L in Table S1)), 53 fold; in assay [3] (KRS1 OE), 11 fold; in assay [3] (KRS1 S324L), 12 fold. The 50% effective concentration (EC50) amounted to 13 ± 0.4 µM in assay [2] (KRS1 OE); 36 ± 4 µM in assay [2] (KRS1 S319L); 1.4 ± 0.04 µM in assay [2] (WT); 3 ± 0.1 µM with T. b. brucei BSF (KRS1 OE); 33 ± 1 µM with T. b. brucei BSF (KRS1 S323L); 0.6 ± 0.01 µM in the assay with T. b. brucei BSF (WT). The results for the 50% effective concentration (EC50) in assay [3] (KRS1 OE) and in assay [3] (WT) were 8 ± 0.5 µM and 0.7 ± 0.01 µM, respectively.

For “Trypanosoma cruzi lysyl-tRNA synthetase 1 (TcKRS1), recombinant, residues 54-580 (enzyme)”, the stoichiometry N in assay [4] stood at 2.
